Reference: patent publication EP3441078A1, “PHARMACEUTICAL PRODUCT FOR TREATING LUPUS ERY[…] COMBINED IMMUNE DEFECT, AND PREPARATION AND APPLICATION THEREOF” (Beijing Lu De Kai Qi Co., Ltd., priority 2016, dated 2017)
Like-named read-outs stand apart in the source and are kept apart here. Marks after values point to notes of the source that are not given here.

Key:
[1] = test system: sperm abnormality in mice; conditions: male mice, 40mg/kg•bw, positive control
Method: 1. […] The walnut extract, wormwood extract, American ginseng extract and shí hú extract were respectively taken, treated in a 70°C water bath for 1 hour, soaked for 12 hours, and concentrated for testing.
(§1) The healthy Kunming mice provided by the Experimental Animal Center of the National Institute for the Control of Pharmaceutical and Biological Products were selected.
50 sexually mature male mice weighing 30-35 g were randomly divided into 5 groups. […] The doses of the anti-lupus erythematosus pharmaceutical product for combined immunization according to the present invention were 2.00, 4.00, and 6.00 g/kg•bw, respectively, and the desired concentration were adjusted with distilled water. The mice were administered via oral gavage once a day for 5 days, and the animals were sacrificed 30 days after the last gavage. The epididymis was acquired and sectioned and stained with eosin. Five animals were counted in each group and 1000 intact sperm were counted per animal. The incidence of sperm abnormality (in percentage) was calculated and statistically processed.

[2] = test system: polychromatic erythrocytes in bone marrow of mice; conditions: 50mg/kg•bw, positive control; for Number of Micronuclei(in Ge): 5000 cells inspected; for Permillage of Micronuclei: P<0.01 vs negative control
Method: as §1
The assay was carried out via oral gavage and the administration was performed twice at intervals of 24 hrs. 50 mice weighing 25-30 g were randomly divided into 5 groups according to body weight, 10 in each group, half male and half female. […] The doses of the anti-lupus erythematosus pharmaceutical product for combined immunization according to the present invention were 2.00, 4.00, and 6.00 g/kg•bw, respectively, which were adjusted to the desired concentration with distilled water. The animals were sacrificed by cervical dislocation six hours after the last administration of the anti-lupus erythematosus pharmaceutical product for combined immunization according to the present invention. The bone marrow of sternum was acquired and diluted with calf serum, smeared, fixed in methanol, and stained with Giemsa. Under the light microscope, 1000 polychromatic erythrocytes (PRC) were measured per animal, and the incidence of micronucleus was determined by the permillage of micronucleus-containing PRC and statistically processed. […] Kunming healthy mice provided by Laboratory Animal Center of National Institutes for Food and Pharmaceutical product Control were selected.
The test was carried out by two-time intragastric administration at an interval of 24 hours.50 mice weighing 25-30 g were randomly divided into 5 groups according to their body weight. They were randomly divided into 5 groups according to their body weight, with 10 mice in each group, half male and half female. […] The doses of the anti-lupus erythematosus pharmaceutical product for combined immunization of the present invention were 2.00, 4.00 and 6.00 g/kg•bw respectively, and were mixed with distilled water to the desired concentration. The animals were sacrificed by cervical dislocation 6 hours after the last administration of the anti-lupus erythematosus pharmaceutical product for combined immunization of the present invention. The sternum bone marrow was diluted with calf serum, fixed with methanol, and stained with Giemsa. Under the light microscope, 1000 polychromatic erythrocytes (PRC) were counted per animal, and the incidence of micronuclei was measured by the permillage of micronucleus-containing PRC and statistically processed.

O=P1(N(CCCl)CCCl)NCCCO1 (stereo not drawn) [cp, cyclophosphamide]
Number of Abnormal Sperms(in Ge) ([1]; 5000 sperms inspected): 480
Percentage of Abnormal Sperms ([1]; P<0.01 vs negative control): 9.6* %
Number of Micronuclei(in Ge) ([2]; Female mice): 150
Permillage of Micronuclei ([2]; Female mice): 30.0* ‰
Number of Micronuclei(in Ge) ([2]; Male mice): 150
Permillage of Micronuclei ([2]; Male mice): 30.0* ‰
